# Experimental data reported in ChEMBL document CHEMBL3822398, “Design, synthesis and in vitro biological evaluation of short-chain C12-sphinganine and its 1,2,3-triazole analogs as potential antimicrobial and anti-biofilm agents” (Eur J Med Chem, 2016).
# Calls of active or inactive are those of the source. The calls are words filed in the database; no cut-off is given here.
# How the values were obtained:
# Staphylococcus aureus [1] = assay: Antibacterial activity against Staphylococcus aureus MTCC 96 incubated for 24 hrs at 37 degC by well diffusion method; type: functional; conditions: MTCC 96, 24 h
# Bacillus subtilis [2] = assay: Antibacterial activity against Bacillus subtilis MTCC 121 incubated for 24 hrs at 37 degC by well diffusion method; type: functional; conditions: MTCC 121, 24 h
# Staphylococcus aureus [3] = assay: Antibacterial activity against Staphylococcus aureus MLS16 MTCC 2940 incubated for 24 hrs at 37 degC by well diffusion method; type: functional; conditions: MLS16 MTCC 2940, 24 h
# Micrococcus luteus [4] = assay: Antibacterial activity against Micrococcus luteus MTCC 2470 incubated for 24 hrs at 37 degC by well diffusion method; type: functional; conditions: MTCC 2470, 24 h
# Raoultella planticola [5] = assay: Antibacterial activity against Klebsiella planticola MTCC 530 incubated for 24 hrs at 37 degC by well diffusion method; type: functional; conditions: MTCC 530, 24 h
# Escherichia coli [6] = assay: Antibacterial activity against Escherichia coli MTCC 739 incubated for 24 hrs at 37 degC by well diffusion method; type: functional; conditions: MTCC 739, 24 h
# Pseudomonas aeruginosa = assay: Antibacterial activity against Pseudomonas aeruginosa MTCC 2453 incubated for 24 hrs at 37 degC by well diffusion method; type: functional; conditions: MTCC 2453, 24 h
# Candida albicans [7] = assay: Antifungal activity against Candida albicans MTCC 183 incubated for 24 hrs at 30 degC by well diffusion method; type: functional; conditions: MTCC 183, 24 h
# Candida albicans [8] = assay: Antifungal activity against Candida albicans MTCC 227 incubated for 24 hrs at 30 degC by well diffusion method; type: functional; conditions: MTCC 227, 24 h
# Candida albicans [9] = assay: Antifungal activity against Candida albicans MTCC 854 incubated for 24 hrs at 30 degC by well diffusion method; type: functional; conditions: MTCC 854, 24 h
# Candida albicans [10] = assay: Antifungal activity against Candida albicans MTCC 1637 incubated for 24 hrs at 30 degC by well diffusion method; type: functional; conditions: MTCC 1637, 24 h
# Candida albicans [11] = assay: Antifungal activity against Candida albicans MTCC 3017 incubated for 24 hrs at 30 degC by well diffusion method; type: functional; conditions: MTCC 3017, 24 h
# Candida albicans [12] = assay: Antifungal activity against Candida albicans MTCC 3018 incubated for 24 hrs at 30 degC by well diffusion method; type: functional; conditions: MTCC 3018, 24 h
# Candida albicans [13] = assay: Antifungal activity against Candida albicans MTCC 3958 incubated for 24 hrs at 30 degC by well diffusion method; type: functional; conditions: MTCC 3958, 24 h
# Candida albicans [14] = assay: Antifungal activity against Candida albicans MTCC 4748 incubated for 24 hrs at 30 degC by well diffusion method; type: functional; conditions: MTCC 4748, 24 h
# Candida albicans [15] = assay: Antifungal activity against Candida albicans MTCC 7315 incubated for 24 hrs at 30 degC by well diffusion method; type: functional; conditions: MTCC 7315, 24 h
# Candida parapsilosis [16] = assay: Antifungal activity against Candida parapsilosis MTCC 1744 incubated for 24 hrs at 30 degC by well diffusion method; type: functional; conditions: Lodderomyces parapsilosis, MTCC 1744, 24 h
# [Candida] aaseri [17] = Antifungal activity against Candida aaseri MTCC 1962 incubated for 24 hrs at 30 degC by well diffusion method; type: functional; conditions: Yamadazyma aaseri, MTCC 1962, 24 h
# Nakaseomyces glabratus [18] = assay: Antifungal activity against Candida glabrata MTCC 3019 incubated for 24 hrs at 30 degC by well diffusion method; type: functional; conditions: MTCC 3019, 24 h
# Pichia kudriavzevii [19] = assay: Antifungal activity against Candida krusei MTCC 3020 incubated for 24 hrs at 30 degC by well diffusion method; type: functional; conditions: MTCC 3020, 24 h
# Pichia sporocuriosa [20] = assay: Antifungal activity against Issatchenkia hanoiensis MTCC 4755 incubated for 24 hrs at 30 degC by well diffusion method; type: functional; conditions: MTCC 4755, 24 h
# Staphylococcus aureus [21] = assay: Bactericidal activity against Staphylococcus aureus MTCC 96 incubated for 24 hrs; type: functional; conditions: MTCC 96, 24 h
# Bacillus subtilis [22] = assay: Bactericidal activity against Bacillus subtilis MTCC 121 incubated for 24 hrs; type: functional; conditions: MTCC 121, 24 h
# Staphylococcus aureus [23] = assay: Bactericidal activity against Staphylococcus aureus MLS16 MTCC 2940 incubated for 24 hrs; type: functional; conditions: MLS16 MTCC 2940, 24 h
# Micrococcus luteus [24] = assay: Bactericidal activity against Micrococcus luteus MTCC 2470 incubated for 24 hrs; type: functional; conditions: MTCC 2470, 24 h
# Raoultella planticola [25] = assay: Bactericidal activity against Klebsiella planticola MTCC 530 incubated for 24 hrs; type: functional; conditions: MTCC 530, 24 h
# Escherichia coli [26] = assay: Bactericidal activity against Escherichia coli MTCC 739 incubated for 24 hrs; type: functional; conditions: MTCC 739, 24 h
# Candida albicans [27] = assay: Fungicidal activity against Candida albicans MTCC 183 incubated for 24 hrs; type: functional; conditions: MTCC 183, 24 h
# Candida albicans [28] = assay: Fungicidal activity against Candida albicans MTCC 227 incubated for 24 hrs; type: functional; conditions: MTCC 227, 24 h
# Candida albicans [29] = assay: Fungicidal activity against Candida albicans MTCC 854 incubated for 24 hrs; type: functional; conditions: MTCC 854, 24 h
# Candida albicans [30] = assay: Fungicidal activity against Candida albicans MTCC 1637 incubated for 24 hrs; type: functional; conditions: MTCC 1637, 24 h
# Candida albicans [31] = assay: Fungicidal activity against Candida albicans MTCC 3017 incubated for 24 hrs; type: functional; conditions: MTCC 3017, 24 h
# Candida albicans [32] = assay: Fungicidal activity against Candida albicans MTCC 3018 incubated for 24 hrs; type: functional; conditions: MTCC 3018, 24 h
# Candida albicans [33] = assay: Fungicidal activity against Candida albicans MTCC 3958 incubated for 24 hrs; type: functional; conditions: MTCC 3958, 24 h
# Candida albicans [34] = assay: Fungicidal activity against Candida albicans MTCC 4748 incubated for 24 hrs; type: functional; conditions: MTCC 4748, 24 h
# Candida albicans [35] = assay: Fungicidal activity against Candida albicans MTCC 7315 incubated for 24 hrs; type: functional; conditions: MTCC 7315, 24 h
# Candida parapsilosis [36] = assay: Fungicidal activity against Candida parapsilosis MTCC 1744 incubated for 24 hrs; type: functional; conditions: Lodderomyces parapsilosis, MTCC 1744, 24 h
# [Candida] aaseri [37] = Fungicidal activity against Candida aaseri MTCC 1962 incubated for 24 hrs; type: functional; conditions: Yamadazyma aaseri, MTCC 1962, 24 h
# Nakaseomyces glabratus [38] = assay: Fungicidal activity against Candida glabrata MTCC 3019 incubated for 24 hrs; type: functional; conditions: MTCC 3019, 24 h
# Pichia kudriavzevii [39] = assay: Fungicidal activity against Candida krusei MTCC 3020 incubated for 24 hrs; type: functional; conditions: MTCC 3020, 24 h
# Pichia sporocuriosa [40] = assay: Fungicidal activity against Issatchenkia hanoiensis MTCC 4755 incubated for 24 hrs; type: functional; conditions: MTCC 4755, 24 h
# Candida albicans [41] = assay: Antibiofilm activity against Candida albicans MTCC 227 after 24 hrs by crystal violet staining based assay; type: functional, organism-based; conditions: MTCC 227, 24 h
# Micrococcus luteus [42] = assay: Antibiofilm activity against Micrococcus luteus MTCC 2470 after 24 hrs by crystal violet staining based assay; type: functional, organism-based; conditions: MTCC 2470, 24 h
# Staphylococcus aureus [43] = assay: Antibiofilm activity against Staphylococcus aureus MTCC 96 after 24 hrs by crystal violet staining based assay; type: functional, organism-based; conditions: MTCC 96, 24 h
# Candida albicans [44] = assay: Induction of ROS accumulation in Candida albicans MTCC 227 sessile cells at 2 to 8 ug/ml incubated for 24 hrs by DCFH-DA dye based microplate reader analysis; type: functional, organism-based
compound,measurement,setting,value
CCCCCCCCC[C@@H](O)[C@H](CO)n1cc(-c2cccc(O)c2)nn1,MIC,Staphylococcus aureus [1],7.8 µg/mL
same,MIC,Bacillus subtilis [2],7.8 µg/mL
same,MIC,Staphylococcus aureus [3],7.8 µg/mL
same,MIC,Micrococcus luteus [4],3.9 µg/mL
same,MIC,Raoultella planticola [5],15.6 µg/mL
same,MIC,Escherichia coli [6],> 250 µg/mL
same,MIC,Pseudomonas aeruginosa,> 250 µg/mL
same,MIC,Candida albicans [7],7.8 µg/mL
same,MIC,Candida albicans [8],3.9 µg/mL
same,MIC,Candida albicans [9],3.9 µg/mL
same,MIC,Candida albicans [10],15.6 µg/mL
same,MIC,Candida albicans [11],7.8 µg/mL
same,MIC,Candida albicans [12],7.8 µg/mL
same,MIC,Candida albicans [13],15.6 µg/mL
same,MIC,Candida albicans [14],7.8 µg/mL
same,MIC,Candida albicans [15],31.2 µg/mL
same,MIC,Candida parapsilosis [16],15.6 µg/mL
same,MIC,[Candida] aaseri [17],7.8 µg/mL
same,MIC,Nakaseomyces glabratus [18],7.8 µg/mL
same,MIC,Pichia kudriavzevii [19],15.6 µg/mL
same,MIC,Pichia sporocuriosa [20],7.8 µg/mL
same,MBC,Staphylococcus aureus [21],7.8 µg/mL
same,MBC,Bacillus subtilis [22],15.6 µg/mL
same,MBC,Staphylococcus aureus [23],15.6 µg/mL
same,MBC,Micrococcus luteus [24],3.9 µg/mL
same,MBC,Raoultella planticola [25],15.6 µg/mL
same,MBC,Escherichia coli [26],> 250 µg/mL
same,MFC,Candida albicans [27],15.6 µg/mL
same,MFC,Candida albicans [28],3.9 µg/mL
same,MFC,Candida albicans [29],7.8 µg/mL
same,MFC,Candida albicans [30],15.6 µg/mL
same,MFC,Candida albicans [31],7.8 µg/mL
same,MFC,Candida albicans [32],15.6 µg/mL
same,MFC,Candida albicans [33],31.2 µg/mL
same,MFC,Candida albicans [34],15.6 µg/mL
same,MFC,Candida albicans [35],31.2 µg/mL
same,MFC,Candida parapsilosis [36],15.6 µg/mL
same,MFC,[Candida] aaseri [37],15.6 µg/mL
same,MFC,Nakaseomyces glabratus [38],7.8 µg/mL
same,MFC,Pichia kudriavzevii [39],31.2 µg/mL
same,MFC,Pichia sporocuriosa [40],7.8 µg/mL
same,IC50,Candida albicans [41],1.9 µg/mL
same,IC50,Micrococcus luteus [42],2.1 µg/mL
same,IC50,Staphylococcus aureus [43],2.9 µg/mL
same,Activity,Candida albicans [44],Active
